Assay results from ChEMBL document CHEMBL1201862, “PubChem BioAssay data set” (2004).
Active and inactive are the calls of the source.

Assays:
[1] = inhibitors of SNCA 5'UTR-driven reporter translation, confirmation, H4 neuroglioma cells, luminescence (AID 1988); type: functional, cell-based
[2] = Luminescence Cell-Based Dose Response HTS to Identify Inhibitors of 5'UTR Stem-Loop Driven Prion Protein mRNA Translation in H4 Neuroglioblastoma Cells. [Related pubchem assays: 1827 (Project Summary), 1813 (Primary HTS)]; type: functional
[3] = tested on: BJ; test: cells; type: functional, cell-based; conditions: Homo sapiens
[4] = tested on: BJ; test: cytotoxicity toward BJ-TERT fibroblasts, dose response, cell-based, RAS-independent, luminescence (AID 1933); type: functional; conditions: Homo sapiens
[5] = inhibitors of firefly luciferase expression or activity, dose response, H4 neuroglioma cells, luminescence (AID 1990); type: functional, cell-based
[6] = cytotoxicity toward DRD oncogenic fibroblasts, dose response, cell-based, non-viral oncogenic, luminescence (AID 1934); type: functional; conditions: Homo sapiens
[7] = tested on: BJ; test: cytotoxicity toward Ras-transformed BJeLR fibroblasts, dose response, cell-based, alamar blue fluorescence, cherrypicked samples (AID 2631); type: functional; conditions: Homo sapiens;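 also: confirmatory dose-response assay in RAS-dependent BJ fibroblasts engineered with TERT, LT and ST, with cytotoxicity read by fluorescence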
[8] = tested on: BJ; test: cytotoxicity toward BJ-TERT-LT-ST fibroblasts, dose response, cell-based, RAS-independent, luminescence (AID 1935); type: functional; conditions: Homo sapiens;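 also: BJ fibroblasts immortalized with TERT plus LT and ST oncogenes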
[9] = tested on: HEK293; test: cytotoxicity in HEK293T NF-kB-Luc cells, SAR follow-up, cytotoxicity control for NF-kB activator project, cell-based, resazurin fluorescence (AID 493251); type: functional; conditions: Homo sapiens
[10] = molecular target: Cyclin-dependent kinase 7 (Homo sapiens, UniProt P50613); type: functional;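 also: value comes from a kinome-wide kinase profiling panel in which CDK7 is one member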
Sequence of Cyclin-dependent kinase 7 (P50613 whole entry): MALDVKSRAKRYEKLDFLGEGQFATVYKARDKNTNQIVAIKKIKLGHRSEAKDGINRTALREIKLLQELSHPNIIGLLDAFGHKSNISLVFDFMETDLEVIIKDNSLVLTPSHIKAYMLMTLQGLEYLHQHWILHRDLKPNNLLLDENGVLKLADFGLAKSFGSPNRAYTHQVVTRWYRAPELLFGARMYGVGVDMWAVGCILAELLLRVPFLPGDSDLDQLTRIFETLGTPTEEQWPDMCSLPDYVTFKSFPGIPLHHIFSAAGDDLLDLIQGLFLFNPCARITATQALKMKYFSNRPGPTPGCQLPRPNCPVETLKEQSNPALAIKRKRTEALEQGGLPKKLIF

[11] = molecular target: Cyclin-dependent kinase 9 (Homo sapiens, UniProt P50750); type: functional;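 also: value from the CDK9 entry of a kinome-spanning kinase panel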
Sequence of Cyclin-dependent kinase 9 (P50750 whole entry): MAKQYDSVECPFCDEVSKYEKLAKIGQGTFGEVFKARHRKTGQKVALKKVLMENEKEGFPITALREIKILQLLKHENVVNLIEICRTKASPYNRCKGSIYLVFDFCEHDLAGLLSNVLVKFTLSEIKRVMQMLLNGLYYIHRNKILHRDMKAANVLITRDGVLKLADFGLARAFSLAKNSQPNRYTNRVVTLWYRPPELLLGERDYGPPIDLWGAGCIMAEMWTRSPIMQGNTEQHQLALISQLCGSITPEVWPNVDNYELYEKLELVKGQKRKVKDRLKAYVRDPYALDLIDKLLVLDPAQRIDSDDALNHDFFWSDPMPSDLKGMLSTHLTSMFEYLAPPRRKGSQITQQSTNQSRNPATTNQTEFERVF

[12] = molecular target: Cell division cycle 7-related protein kinase (Homo sapiens, UniProt O00311); type: functional;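 also: value obtained from a kinome-wide kinase panel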
Sequence of Cell division cycle 7-related protein kinase (O00311 whole entry): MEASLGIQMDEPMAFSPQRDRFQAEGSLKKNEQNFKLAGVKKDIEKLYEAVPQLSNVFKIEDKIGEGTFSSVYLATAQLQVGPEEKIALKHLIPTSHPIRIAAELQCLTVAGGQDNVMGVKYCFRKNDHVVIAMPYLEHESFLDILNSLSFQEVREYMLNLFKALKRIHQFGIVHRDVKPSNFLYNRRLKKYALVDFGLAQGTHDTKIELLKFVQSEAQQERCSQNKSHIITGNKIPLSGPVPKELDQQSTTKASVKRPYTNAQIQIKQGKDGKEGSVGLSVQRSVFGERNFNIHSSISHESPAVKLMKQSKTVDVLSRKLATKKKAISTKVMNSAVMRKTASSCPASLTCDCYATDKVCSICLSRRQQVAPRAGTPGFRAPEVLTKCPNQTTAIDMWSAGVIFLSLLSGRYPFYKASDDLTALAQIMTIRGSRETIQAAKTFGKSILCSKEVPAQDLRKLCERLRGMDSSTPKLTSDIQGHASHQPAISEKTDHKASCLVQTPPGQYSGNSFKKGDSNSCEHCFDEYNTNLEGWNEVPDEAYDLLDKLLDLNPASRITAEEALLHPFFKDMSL

[13] = molecular target: T1, Sentrin-specific protease 8 (Homo sapiens, UniProt Q96LD8); type: functional
T1 sequence (Q96LD8 whole entry): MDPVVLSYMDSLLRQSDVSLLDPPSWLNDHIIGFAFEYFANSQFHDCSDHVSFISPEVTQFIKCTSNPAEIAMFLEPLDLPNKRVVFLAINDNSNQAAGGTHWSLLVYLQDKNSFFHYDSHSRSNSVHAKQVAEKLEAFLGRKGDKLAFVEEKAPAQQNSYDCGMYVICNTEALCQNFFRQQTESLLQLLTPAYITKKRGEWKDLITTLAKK

[14] = molecular target: T1, Sentrin-specific protease 8; type: functional; remark: listed apart in the source
[15] = molecular target: Glucose-6-phosphate 1-dehydrogenase (Homo sapiens, UniProt P11413); test: human G6PD enzyme inhibitors, dose response, selectivity assay for P. falciparum G6PD inhibitor project, biochemical, fluorescence (AID 504792); type: functional
Sequence of Glucose-6-phosphate 1-dehydrogenase (P11413 whole entry): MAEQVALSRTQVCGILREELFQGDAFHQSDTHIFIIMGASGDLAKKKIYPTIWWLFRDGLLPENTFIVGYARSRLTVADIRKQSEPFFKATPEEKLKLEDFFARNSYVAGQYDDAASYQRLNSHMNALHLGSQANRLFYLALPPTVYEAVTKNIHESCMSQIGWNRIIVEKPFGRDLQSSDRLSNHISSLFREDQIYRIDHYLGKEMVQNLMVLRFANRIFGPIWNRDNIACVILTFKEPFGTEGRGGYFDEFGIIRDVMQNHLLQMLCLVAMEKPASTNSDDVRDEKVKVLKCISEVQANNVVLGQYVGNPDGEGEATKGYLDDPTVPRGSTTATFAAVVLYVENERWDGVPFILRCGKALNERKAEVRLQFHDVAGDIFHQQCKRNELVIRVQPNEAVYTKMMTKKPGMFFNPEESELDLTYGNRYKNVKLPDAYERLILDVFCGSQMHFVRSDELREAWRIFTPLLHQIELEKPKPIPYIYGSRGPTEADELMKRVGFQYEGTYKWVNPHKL

[16] = molecular target: T2, Beta-lactamase (Pseudomonas aeruginosa, UniProt Q79MP6); test: IMP-1 metallo-beta-lactamase inhibitors, dose response, selectivity assay for VIM-2 inhibitor project, biochemical, epi-absorbance (AID 1920)
T2 sequence (Q79MP6 whole entry): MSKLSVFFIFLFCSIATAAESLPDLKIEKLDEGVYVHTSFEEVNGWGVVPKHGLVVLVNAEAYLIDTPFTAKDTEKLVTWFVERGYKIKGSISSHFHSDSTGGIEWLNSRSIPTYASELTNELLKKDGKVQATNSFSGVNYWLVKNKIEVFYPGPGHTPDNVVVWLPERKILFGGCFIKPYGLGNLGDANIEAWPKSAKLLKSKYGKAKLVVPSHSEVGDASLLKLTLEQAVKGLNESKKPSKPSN

[17] = molecular target: T2, Beta-lactamase; test: […] counterscreen for selective VIM-2 inhibitors: dose response biochemical high throughput screening assay to identify inhibitors of IMP-1 metallo-beta-lactamase.
[18] = molecular target: Beta-lactamase (Salmonella choleraesuis (strain SC-B67), UniProt Q5J463); test: Epi-absorbance-based counterscreen for selective VIM-2 inhibitors: dose response biochemical high throughput screening assay to identify inhibitors of TEM-1 serine-beta-lactamase.
Sequence of Beta-lactamase (Salmonella choleraesuis (strain SC-B67), UniProt Q5J463) (Q5J463 whole entry): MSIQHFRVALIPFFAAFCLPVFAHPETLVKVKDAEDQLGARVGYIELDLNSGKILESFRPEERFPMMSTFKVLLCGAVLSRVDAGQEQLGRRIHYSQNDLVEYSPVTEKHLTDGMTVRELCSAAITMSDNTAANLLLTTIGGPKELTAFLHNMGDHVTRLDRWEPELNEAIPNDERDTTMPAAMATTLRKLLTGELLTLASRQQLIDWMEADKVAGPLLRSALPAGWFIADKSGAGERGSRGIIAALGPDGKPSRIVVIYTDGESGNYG

[19] = THP-1 cell cytotoxicity, cytotoxicity control, set 4 (AID 504911); type: functional; conditions: Mycobacterium tuberculosis

Q: With `N#CC1=C(N)Oc2cc(N)ccc2C1c1cccc(Br)c1` (centres undefined) as the compound, how does the EC50 [1] read?
A: 0.18 µM (active)

Q: What about the EC50 [2] of the same compound?
A: 0.502 µM (active)

Q: And the EC50 [3]?
A: 0.702 µM (active)

Q: What about the EC50 [4] of the same compound?
A: 1.2 µM (active)

Q: What about the EC50 [5] of the same compound?
A: 1.83 µM (active)

Q: And the EC50 [6]?
A: 0.658 µM (active)

Q: And the EC50 [7]?
A: 0.182 µM (active)

Q: What about the EC50 [8] of the same compound?
A: 0.859 µM (inconclusive)

Q: For `COC(=O)CCc1nc(-c2ccc(C(C)(C)C)cc2)no1`, which IC50 [9] is on record?
A: > 80 µM (inactive)

Q: Which results are given for `NC(=O)c1ccc(-c2ccncc2)cc1N1CCCC1`?
A: Ki [10]: > 2.51 µM (inactive); Ki [11]: 1 µM (active); Ki [12]: 0.126 µM (active)

Q: For `Cc1ccc(Nc2cc(C)c(O)c(C)c2)cc1`, which IC50 [13] is on record?
A: 13.9 µM (active)

Q: What about the IC50 [14] of the same compound?
A: 23.7 µM (active)

Q: What about the IC50 [15] of the same compound?
A: 40 µM (inactive)

Q: Which results are given for `Cc1ccc(-n2c(-c3nn(C)c(C)c3Cl)n[nH]c2=S)cc1`?
A: IC50 [16]: > 59.6 µM (inactive); IC50 [17]: > 59.6 µM (inactive); IC50 [18]: > 59.6 µM (inactive)

Q: With `O=C(CSc1ncccn1)NC1CCCCC1` as the compound, how does the CC50 [19] read?
A: > 100 µM (active)
